Measurements from patent publication US20240024403A1, “Compositions and Methods for Managing Weight” (Unigen, Inc., priority 2012, published 2024).

Test: High fat diet induced obesity (DIO) mouse model
Type: in vivo, C57CL/6J mice
Conditions: for Total Weight / Total Body Weight: in g (unit assumed); for Feed intake: orlistat 40 mg/kg/day oral
Procedure: C57CL/6J mice aged 4-6 weeks (Korea Research Institute of Bioscience & Biotechnology, Ohchang, Korea) were housed in Polycarbonate cages (five mice per cage) in a room with a 12 hr:12 hr light-dark cycle and an ambient temperature of 24° C. All the mice were fed a commercial chow diet for 1 week after arrival in the animal facility. Mice were then divided into normal and obesity groups and fed with normal diet (ND) and high fat diets (HFD) respectively. The HFD group was divided into multiple treatment groups: a high fat diet vehicle group (HFD), an orlistat (purchased as OTC drug Alli®) positive control treatment group (ORI, 40 mg/kg of animal weight, 2 times/day) and optionally a sibutramine positive control treatment group (10 mg/kg, 1 time/day). The HFD contained 340 g of fat/kg of HFD (310 g lard plus 30 g soybean oil; Harlan Laboratories, USA). The HFD was formulated to provide 60% of the total energy generated by the diet from fat by replacing carbohydrate energy with lard and soybean oil, whereas the normal diet (ND) group was fed a diet providing only 18% of the total diet energy from fat(Harlan Laboratories, USA).
Body weight was measured once each week and feed intake was measured twice per week. At the end of the experimental period, following a 12 hr. fasting period, the animals were anesthetized with ether, and blood was drawn from the abdominal vein. Liver and kidney and adipose tissues (epididymal, retroperitoneal, perirenal adipose tissues) were removed from each animal, rinsed with physiological saline, and weighed. Serum concentrations of glucose, total cholesterol, triglycerides, and LDL-cholesterol were determined using automatic analyzer (INTEGRA 400, Roche, Germany). Statistical significance of test results was measured using the Student's t-test.

[1] = DIO mice, week 2, G1 = 1,100 mg/kg orally twice a day
[2] = DIO mice, week 2, G1 = 1,200 mg/kg orally twice a day
[3] = DIO mice, week 3, G1 = 800 mg/kg orally twice a day
[4] = DIO mice, week 3, G1 = 1,100 mg/kg orally twice a day
[5] = DIO mice, week 3, G1 = 1,200 mg/kg orally twice a day
[6] = DIO mice, week 4, G1 = 800 mg/kg orally twice a day
[7] = DIO mice, week 4, G1 = 1,100 mg/kg orally twice a day
[8] = DIO mice, week 4, G1 = 1,200 mg/kg orally twice a day
[9] = DIO mice, week 5, G1 = 800 mg/kg orally twice a day
[10] = DIO mice, week 5, G1 = 1,100 mg/kg orally twice a day
[11] = DIO mice, week 5, G1 = 1,200 mg/kg orally twice a day
[12] = DIO mice, week 6, G1 = 800 mg/kg orally twice a day
[13] = DIO mice, week 6, G1 = 1,100 mg/kg orally twice a day
[14] = DIO mice, week 6, G1 = 1,200 mg/kg orally twice a day
[15] = DIO mice, week 7, G1 = 800 mg/kg orally twice a day
[16] = DIO mice, week 7, G1 = 1,100 mg/kg orally twice a day
[17] = DIO mice, week 7, G1 = 1,200 mg/kg orally twice a day
[18] = DIO mice, week 8, G1 = 800 mg/kg orally twice a day
[19] = DIO mice, week 8, G1 = 1,100 mg/kg orally twice a day
[20] = DIO mice, week 8, G1 = 1,200 mg/kg orally twice a day
[21] = Liver pathology, DIO mice, G1 = 800 mg/kg orally twice a day
[22] = Liver pathology, DIO mice, G1 = 1,100 mg/kg orally twice a day
[23] = ORI 40 mg/kg, DIO mice, end of study
[24] = ORI 40 mg/kg, mice fed a high fat diet (Table 44)
[25] = ORI 40 mg/kg, mice fed high fat diet
[26] = ORI, DIO mice, blood at end of study
[27] = blood at end of study, orlistat 40 mg/kg oral
[28] = liver pathology score, DIO mice, combination (10:1) 1100 mg/kg twice a day
[29] = liver pathology score, mice fed a high fat diet, Mutamba fractions 250 mg/kg oral 2 times per day, mean
[30] = liver pathology score, mice fed a high fat diet, Mutamba fractions 250 mg/kg oral 2 times per day, mean (table printed twice)

In the case of `CCCCCCCCCCC[C@@H](C[C@@H]1OC(=O)[C@H]1CCCCCC)OC(=O)[C@H](CC(C)C)NC=O` [ORI, orlistat], the “Total Weight” value (DIO mice, week 2, G1 = 800 mg/kg orally twice a day) was 34.08, the “Weight Gain” value [1] was −6.14 and the “Total Weight” value [1] was 34.08. For the same molecule, the “Weight Gain” value [2] was −6.14, the “Total Body Weight” value [2] was 34.08 and the “Total Weight” value (DIO mice, week 2, ORI group, mean, Table 134) was 31.91. For the same molecule, the “Weight Gain” value (DIO mice, week 2, ORI group, mean, Table 135) was −6.69, the “Total Body Weight” value (DIO mice, week 2, ORI group, mean, Table 145) was 34.08 and the “Weight Gain” value (DIO mice, week 2, ORI group, mean, Table 146) was −6.14. For the same molecule, the “Weight Gain” value [3] was −4.91, the “Total Weight” value [3] was 35.32 and the “Weight Gain” value [4] was −4.91. For the same molecule, the “Total Weight” value [4] was 35.32, the “Weight Gain” value [5] was −4.91 and the “Total Body Weight” value [5] was 35.32. For the same molecule, the “Total Weight” value (DIO mice, week 3, ORI group, mean, Table 134) was 33.34, the “Weight Gain” value (DIO mice, week 3, ORI group, mean, Table 135) was −5.27 and the “Total Body Weight” value (DIO mice, week 3, ORI group, mean, Table 145) was 35.32. For the same molecule, the “Weight Gain” value (DIO mice, week 3, ORI group, mean, Table 146) was −4.91, the “Weight Gain” value [6] was −3.84 and the “Total Weight” value [6] was 36.38. The “Weight Gain” value [7] was −3.84, the “Total Weight” value [7] was 36.38 and the “Weight Gain” value [8] was −3.84. The “Total Body Weight” value [8] was 36.38, the “Total Weight” value (DIO mice, week 4, ORI group, mean, Table 134) was 35.14 and the “Weight Gain” value (DIO mice, week 4, ORI group, mean, Table 135) was −3.47. For the same molecule, the “Total Body Weight” value (DIO mice, week 4, ORI group, mean, Table 145) was 36.38, the “Weight Gain” value (DIO mice, week 4, ORI group, mean, Table 146) was −3.84 and the “Weight Gain” value [9] was −2.57. For the same molecule, the “Total Weight” value [9] was 37.65, the “Weight Gain” value [10] was −2.57 and the “Total Weight” value [10] was 37.65. The “Weight Gain” value [11] was −2.57, the “Total Body Weight” value [11] was 37.65 and the “Total Weight” value (DIO mice, week 5, ORI group, mean, Table 134) was 36.27. For the same molecule, the “Weight Gain” value (DIO mice, week 5, ORI group, mean, Table 135) was −2.34, the “Total Body Weight” value (DIO mice, week 5, ORI group, mean, Table 145) was 37.65 and the “Weight Gain” value (DIO mice, week 5, ORI group, mean, Table 146) was −2.57. For the same molecule, the “Weight Gain” value [12] was −1.47, the “Total Weight” value [12] was 38.75 and the “Weight Gain” value [13] was −1.47. For the same molecule, the “Total Weight” value [13] was 38.75, the “Weight Gain” value [14] was −1.47 and the “Total Body Weight” value [14] was 38.75. For the same molecule, the “Total Weight” value (DIO mice, week 6, ORI group, mean, Table 134) was 37.52, the “Weight Gain” value (DIO mice, week 6, ORI group, mean, Table 135) was −1.08 and the “Total Body Weight” value (DIO mice, week 6, ORI group, mean, Table 145) was 38.75. For the same molecule, the “Weight Gain” value (DIO mice, week 6, ORI group, mean, Table 146) was −1.47, the “Weight Gain” value [15] was −0.26 and the “Total Weight” value [15] was 39.96. The “Weight Gain” value [16] was −0.26, the “Total Weight” value [16] was 39.96 and the “Weight Gain” value [17] was −0.26. The “Total Body Weight” value [17] was 39.96, the “Total Weight” value (DIO mice, week 7, ORI group, mean, Table 134) was 38.62 and the “Weight Gain” value (DIO mice, week 7, ORI group, mean, Table 135) was 0.02. For the same molecule, the “Total Body Weight” value (DIO mice, week 7, ORI group, mean, Table 145) was 39.96, the “Weight Gain” value (DIO mice, week 7, ORI group, mean, Table 146) was −0.26 and the “Weight Gain” value [18] was −0.23. The “Total Weight” value [18] was 39.99, the “Weight Gain” value [19] was −0.23 and the “Total Weight” value [19] was 39.99. For the same molecule, the “Weight Gain” value [20] was −0.23, the “Total Body Weight” value [20] was 39.99 and the “Total Body Weight” value (DIO mice, week 8, ORI group, mean, Table 145) was 39.99. For the same molecule, the “Weight Gain” value (DIO mice, week 8, ORI group, mean, Table 146) was −0.23, the “Hepatocellular ballooning (0-2)” value [21] was 0.33 and the “Lobular Inflammation (0-3)” value [21] was 1.50. For the same molecule, the “NASH (sum)” value [21] was 2.17, the “Steatosis (0-3)” value [21] was 0.33 and the “Hepatocellular ballooning (0-2)” value [22] was 0.33. For the same molecule, the “Lobular Inflammation (0-3)” value [22] was 1.50, the “NSAH (sum)” value [22] was 2.17 and the “Steatosis (0-3)” value [22] was 0.33. It also gave an Organ Weight: Epididymal Fat [23] of 1.92 g, an Organ Weight: Liver [23] of 1.12 g and an Organ Weight: Perirenal Fat [23] of 0.33 g. The Organ Weight: Retroperitoneal Fat [23] was 0.47 g, the Organ Weight: Total Fat [23] was 2.73 g and the “Average Body Weight Gain” value [24] was -0.031 g/day. The “Average Food Intake” value [24] was 2.711 g/day, the “Food Efficiency Ratio (FER)” value [24] was −0.011 and the “Average Body Weight Gain” value [25] was -0.031 g/day. The “Average Food Intake” value [25] was 2.711 g/day, the “Food Efficiency Ratio (FER)” value (ORI 40 mg/kg, mice fed high fat diet, body weight gain (g/day)/food intake (g/day)) was −0.011 and the “Total Body Weight” value (ORI 40 mg/kg, week 0) was 42.76. The “Total Body Weight” value (ORI 40 mg/kg, week 1) was 38.73, the “Total Body Weight” value (ORI 40 mg/kg, week 2) was 35.09 and the “Total Body Weight” value (ORI 40 mg/kg, week 3) was 35.66. For the same molecule, the “Total Body Weight” value (ORI 40 mg/kg, week 4) was 37.28, the “Total Body Weight” value (ORI 40 mg/kg, week 5) was 38.57 and the “Total Body Weight” value (ORI 40 mg/kg, week 6) was 40.03. The “Total Body Weight” value (ORI 40 mg/kg, week 7) was 40.91, the “F-Glu (fasting glucose)” value [26] was 222.43 mg/dL and the “LDL-C (LDL-cholesterol)” value [26] was 4.27 mg/dL. The “T-Chol (total cholesterol)” value [26] was 134.57 mg/dL, the ALT [27] was 21.83 U/L and the AST [27] was 65.65 U/L. For the same molecule, the LDL-C [27] was 4.03 mg/dL, the T-chol [27] was 137.33 mg/dL and the TG [27] was 27.83 mg/dL. The Feed intake (day 4) was 2.23 g/day, the Feed intake (day 7) was 2.56 g/day and the Feed intake (day 11) was 3.01 g/day. For the same molecule, the Feed intake (day 14) was 3.18 g/day, the Feed intake (day 21) was 3.27 g/day and the Feed intake (day 25) was 3.27 g/day. For the same molecule, the Feed intake (day 28) was 3.44 g/day, the Feed intake (day 32) was 3.27 g/day and the Feed intake (day 35) was 3.35 g/day. The Feed intake (day 39) was 3.17 g/day, the Feed intake (day 42) was 3.43 g/day and the Feed intake (day 46) was 3.18 g/day. For the same molecule, the Feed intake (day 49) was 3.54 g/day, the Feed intake (day 53) was 3.17 g/day and the weight decrease (end of the 8 week treatment) was 0.23 gram. For the same molecule, the “NASH (sum)” value (liver pathology score sum, DIO mice, combination (10:1) 1100 mg/kg twice a day) was 3.40, the “Hepatocellular ballooning (0-2)” value [28] was 1.00 and the “Lobular Inflammation (0-3)” value [28] was 1.40. The “Steatosis (0-3)” value [28] was 1.00, the “Hepatocellular ballooning (0-2)” value [29] was 0.80 and the “Lobular Inflammation (0-3)” value [29] was 1.60. For the same molecule, the “Steatosis (0-3)” value [29] was 1.00, the “Hepatocellular ballooning (0-2)” value [30] was 0.80 and the “Lobular Inflammation (0-3)” value [30] was 1.60. The “Steatosis (0-3)” value [30] was 1.00, the “NSAH (sum)” value (liver pathology, sum of scores, mice fed a high fat diet, Mutamba fractions 250 mg/kg oral 2 times per day, mean) was 3.40 and the “NSAH (sum)” value (liver pathology, sum of scores, mice fed a high fat diet, Mutamba fractions 250 mg/kg oral 2 times per day, mean (table printed twice)) was 3.40.
